Laboratory results as given in ChEMBL document CHEMBL5724914, “Linking interpersonal differences in gut microbiota composition and drug biotransformation activity” (2024).

Test: (§1) The drug is tested on WLS-170 corresponding to human gut metagenome with ENA study accession number: PRJEB37062 and ENA sample accession number: ERS12561762 for biotransformation under anaerobic condition. The drug concentrations were measured over 9 timepoints collected between 0 and 24 hours of incubation by liquid-chromatography-coupled mass spectrometry (LC–MS)
Conditions: 2 µM
Further: call rule not given here.

Bacterial Biotransformation | SMILES
Compound metabolized | CCCN(CCC)CCc1cccc2c1CC(=O)N2 [ROPINIROLE]
Compound metabolized | CN[C@H]1CC[C@@H](c2ccc(Cl)c(Cl)c2)c2ccccc21 [SERTRALINE]

Conditions: human gut metagenome, 24 h, 2 µM

Bacterial Biotransformation | SMILES
Compound NOT metabolized | CCCN(CCC)CCc1cccc2c1CC(=O)N2 [ROPINIROLE]
Compound metabolized | CN[C@H]1CC[C@@H](c2ccc(Cl)c(Cl)c2)c2ccccc21 [SERTRALINE]

Test: as §1, with “WLS-086” for “WLS-170”, “ERS12561752” for “ERS12561762”
Conditions: 2 µM

Bacterial Biotransformation | SMILES
Compound metabolized | CCCN(CCC)CCc1cccc2c1CC(=O)N2 [ROPINIROLE]
Compound metabolized | CN[C@H]1CC[C@@H](c2ccc(Cl)c(Cl)c2)c2ccccc21 [SERTRALINE]

Conditions: human gut metagenome, 24 h, 2 µM
Remark: another data set of the same source

Bacterial Biotransformation | SMILES
Compound NOT metabolized | CCCN(CCC)CCc1cccc2c1CC(=O)N2 [ROPINIROLE]
Compound NOT metabolized | CN[C@H]1CC[C@@H](c2ccc(Cl)c(Cl)c2)c2ccccc21 [SERTRALINE]

Conditions: human gut metagenome, 24 h, 2 µM
Remark: another data set of the same source

Bacterial Biotransformation | SMILES
Compound NOT metabolized | CCCN(CCC)CCc1cccc2c1CC(=O)N2 [ROPINIROLE]
Compound NOT metabolized | CN[C@H]1CC[C@@H](c2ccc(Cl)c(Cl)c2)c2ccccc21 [SERTRALINE]

Test: as §1, with “Z-014” for “WLS-170”, “rat” for “human”, “ERS12561814” for “ERS12561762”
Conditions: 2 µM

Bacterial Biotransformation | SMILES
Compound NOT metabolized | CCCN(CCC)CCc1cccc2c1CC(=O)N2 [ROPINIROLE]
Compound NOT metabolized | CN[C@H]1CC[C@@H](c2ccc(Cl)c(Cl)c2)c2ccccc21 [SERTRALINE]

Test: as §1, with “WLS-090” for “WLS-170”, “ERS12561753” for “ERS12561762”
Conditions: 2 µM

Bacterial Biotransformation | SMILES
Compound metabolized | CCCN(CCC)CCc1cccc2c1CC(=O)N2 [ROPINIROLE]
Compound metabolized | CN[C@H]1CC[C@@H](c2ccc(Cl)c(Cl)c2)c2ccccc21 [SERTRALINE]

Test: as §1, with “Z-021” for “WLS-170”, “to” for “to human gut”, “ERS12561820” for “ERS12561762”
Conditions: 2 µM

Bacterial Biotransformation | SMILES
Compound NOT metabolized | CCCN(CCC)CCc1cccc2c1CC(=O)N2 [ROPINIROLE]
Compound metabolized | CN[C@H]1CC[C@@H](c2ccc(Cl)c(Cl)c2)c2ccccc21 [SERTRALINE]

Test: as §1, with “WLS-039” for “WLS-170”, “ERS12561746” for “ERS12561762”
Conditions: 2 µM

Bacterial Biotransformation | SMILES
Compound NOT metabolized | CCCN(CCC)CCc1cccc2c1CC(=O)N2 [ROPINIROLE]
Compound metabolized | CN[C@H]1CC[C@@H](c2ccc(Cl)c(Cl)c2)c2ccccc21 [SERTRALINE]

Test: as §1, with “Z-010” for “WLS-170”, “to” for “to human gut”, “ERS12561810” for “ERS12561762”
Conditions: 2 µM

Bacterial Biotransformation | SMILES
Compound NOT metabolized | CCCN(CCC)CCc1cccc2c1CC(=O)N2 [ROPINIROLE]
Compound metabolized | CN[C@H]1CC[C@@H](c2ccc(Cl)c(Cl)c2)c2ccccc21 [SERTRALINE]

Test: as §1, with “Z-019” for “WLS-170”, “rat” for “human”, “ERS12561818” for “ERS12561762”
Conditions: 2 µM

Bacterial Biotransformation | SMILES
Compound NOT metabolized | CCCN(CCC)CCc1cccc2c1CC(=O)N2 [ROPINIROLE]
Compound NOT metabolized | CN[C@H]1CC[C@@H](c2ccc(Cl)c(Cl)c2)c2ccccc21 [SERTRALINE]

Test: as §1, with “Z-005” for “WLS-170”, “to” for “to human gut”, “ERS12561805” for “ERS12561762”
Conditions: 2 µM

Bacterial Biotransformation | SMILES
Compound NOT metabolized | CCCN(CCC)CCc1cccc2c1CC(=O)N2 [ROPINIROLE]
Compound NOT metabolized | CN[C@H]1CC[C@@H](c2ccc(Cl)c(Cl)c2)c2ccccc21 [SERTRALINE]

Conditions: human gut metagenome, 24 h, 2 µM
Remark: another data set of the same source

Bacterial Biotransformation | SMILES
Compound NOT metabolized | CCCN(CCC)CCc1cccc2c1CC(=O)N2 [ROPINIROLE]
Compound metabolized | CN[C@H]1CC[C@@H](c2ccc(Cl)c(Cl)c2)c2ccccc21 [SERTRALINE]

Test: as §1, with “Z-001” for “WLS-170”, “mouse” for “human”, “ERS12561801” for “ERS12561762”
Conditions: 2 µM

Bacterial Biotransformation | SMILES
Compound NOT metabolized | CCCN(CCC)CCc1cccc2c1CC(=O)N2 [ROPINIROLE]
Compound NOT metabolized | CN[C@H]1CC[C@@H](c2ccc(Cl)c(Cl)c2)c2ccccc21 [SERTRALINE]

Test: as §1, with “Z-018” for “WLS-170”, “pig” for “human”, “ERS12561817” for “ERS12561762”
Conditions: 2 µM

Bacterial Biotransformation | SMILES
Compound metabolized | CCCN(CCC)CCc1cccc2c1CC(=O)N2 [ROPINIROLE]
Compound metabolized | CN[C@H]1CC[C@@H](c2ccc(Cl)c(Cl)c2)c2ccccc21 [SERTRALINE]

Test: as §1, with “Z-017” for “WLS-170”, “mouse” for “human”, “ERS12561816” for “ERS12561762”
Conditions: 2 µM

Bacterial Biotransformation | SMILES
Compound NOT metabolized | CCCN(CCC)CCc1cccc2c1CC(=O)N2 [ROPINIROLE]
Compound metabolized | CN[C@H]1CC[C@@H](c2ccc(Cl)c(Cl)c2)c2ccccc21 [SERTRALINE]

Test: as §1, with “WLS-082” for “WLS-170”, “ERS12561751” for “ERS12561762”
Conditions: 2 µM

Bacterial Biotransformation | SMILES
Compound NOT metabolized | CCCN(CCC)CCc1cccc2c1CC(=O)N2 [ROPINIROLE]
Compound metabolized | CN[C@H]1CC[C@@H](c2ccc(Cl)c(Cl)c2)c2ccccc21 [SERTRALINE]

Conditions: human gut metagenome, 24 h, 2 µM
Remark: another data set of the same source

Bacterial Biotransformation | SMILES
Compound metabolized | CCCN(CCC)CCc1cccc2c1CC(=O)N2 [ROPINIROLE]
Compound metabolized | CN[C@H]1CC[C@@H](c2ccc(Cl)c(Cl)c2)c2ccccc21 [SERTRALINE]

Conditions: human gut metagenome, 24 h, 2 µM
Remark: another data set of the same source

Bacterial Biotransformation | SMILES
Compound NOT metabolized | CCCN(CCC)CCc1cccc2c1CC(=O)N2 [ROPINIROLE]
Compound NOT metabolized | CN[C@H]1CC[C@@H](c2ccc(Cl)c(Cl)c2)c2ccccc21 [SERTRALINE]

Test: as §1, with “WLS-027” for “WLS-170”, “ERS12561744” for “ERS12561762”
Conditions: 2 µM

Bacterial Biotransformation | SMILES
Compound NOT metabolized | CCCN(CCC)CCc1cccc2c1CC(=O)N2 [ROPINIROLE]
Compound metabolized | CN[C@H]1CC[C@@H](c2ccc(Cl)c(Cl)c2)c2ccccc21 [SERTRALINE]
